Data: patent publication US20060088545A1, “Use of inhibitors of the protease of the human immunodeficiency virus (hiv) to block cell migration and/or invasion, tissue infiltration and oedema for the therary of diseases associated therewith” (priority 2001, published 2006)

Assays:
EA-hy 926 cells [1] = assay: Angiogenic tumours induced by EA-hy 926 cells in nude mice (drug pre-treatment); assay type: in vivo; conditions: EA-hy 926 cells 3×10^6; for No. of mice with macroscopic lesions/No. of inoculated mice / mice with macroscopic lesions (%): treatment since 2 days prior to inoculation
Procedure: (§1) To determine whether HIV-PI could inhibit the growth of a malignant angiogenic tumour, nude mice were inoculated with the EA-hy 926 cell line. This cell line is derived from a hybrid between H-UVEC and human lung adeno-carcinoma cells (Edgell et al, PNAS 1983), retains most of the endothelial cell markers and is used as an angiogenic tumour model (Albini et al, Nat Med 1996; Albini et al, PNAS 1995; Cai et al, Lab Invest 1999). HIV-PI were administered to nude mice starting 2 days prior to tumour cell inoculation.
Mice were sacrificed 5-6 days after cell injection and lesions present at the injection site measured by caliper, and analyzed microscopically after H&E staining or by immuno-histochemical analysis. […] Tumour-associated angiogenesis was evaluated after immuno-histochemical staining for FVIII-RA or CD31 markers, as described in legend to Table 1. Shown are external lesion size (cm^2±SD) and the percentage of stained tumour tissue (±SD) as quantified by the KS300 image analysis software (Zeiss) (see methods).

KS cells [2] = assay: KS cell adhesion to fibronectin; assay type: cell-based, human
EA-hy 926 cells [3] = assay: Tumour angiogenic lesions induced by Ea-hy 926 cells in nude mice, no drug pre-treatment; assay type: in vivo; conditions: treatment started on the day of cell inoculation, 5 days
Procedure: Mice were inoculated subcutaneously into the lower back with Ea-hy 926 cells (3×10^6 cells/animal in 0.2 ml of 10% FBS RPMI 1640) or with the resuspension medium, all mixed with 0.2 ml of growth factor-depleted matrigel (BD Biosciences, Bedford, Mass.) prior to inoculation as described above. […] Treatment was then continued for 5 days, until sacrifice. The size of the lesions present at the injection site was evaluated daily by caliper measurement. External lesion area was then calculated as the product of the two major lesion diameters. The mean size (cm^2) of the lesions present at the injection site is shown.
as §1, with “inoculation. […] Similarly, the external tumour area was reduced in mice treated with both HIV-PI (P<0.05), reaching the size of the negative controls (Table 7). […] Inhibition of tumour growth was also observed in the absence of drug pre-treatment (FIG. 25). […]” for “inoculation.”

[4] = test system: breast carcinoma cells (MDA-MB-468); assay: Cell growth assay of MDA-MB-468 cells; assay type: cell-based, human; conditions: 10 μM; 4 days
Procedure: Shown is the result of a representative cell growth assay performed on the breast carcinoma cells. Human breast carcinoma cells (MDA-MB468; ATCC) were plated in triplicate (8×10^4 cells/well) in 12-well plates. […] Ensoli et al., 1994b): For all the in vitro studies HIV-PI as endotoxin-free pure powder (a kind gift of Merck Sharp & Dohme and Roche) were resuspended in distilled water. Assays were repeated at least three times.

[5] = test system: breast carcinoma (MDA-MB468) cells; assay: Tumour lesions induced by MDA-MB468 cells in nude mice; assay type: in vivo; conditions: 5×10^6 cells/site; daily treatment
Procedure: FIG. 28. […] The treatment with HIV-PI or saline solution continued until sacrifice. The size of the lesions present at the injection site was evaluated daily by caliper measurement. External lesion area was then calculated as the product of the two major lesion diameters. The mean size (cm^2) of the lesions present at the injection site is shown.
(§2) To determine whether HIV-PI could inhibit the growth of malignant solid and lymphoid tumours, nude mice were inoculated with hepato-carcinoma cells (SK-Hep-1), lung carcinoma cells (A549), breast adeno-carcinoma cells (MDA-MB-468), myelo-monocytic leukaemia cells (U937), and T lymhocytic leukaemia cells (Jurkat).

KS cells [6] = assay: KS cell proliferation (trypan blue dye exclusion); assay type: cell-based, human; conditions: 7 days
[7] = test system: lung carcinoma (A549) cells; assay: Invasion assay of A549 cells in response to bFGF; assay type: cell-based, human; conditions: 0.1, 1 or 10 μM
Procedure: The invasion assays were performed in the Boyden chamber. Polycarbonate filters ([…]; Nucleoprobe, Cabin John, Md.) were coated first with collagen IV and then with Matrigel (Collaborative Biomedical Products) as described previously (Barillari et al., 1999b). […] Human recombinant bFGF (50 ng/ml) was placed in the lower compartment as chemo-attractant. […] Louis, Mo.). Ten random filter fields were counted by light microscopy as described previously (Barillari et al., 1999b).

[8] = test system: dermal microvascular endothelial cells (H-DMVEC); assay: Invasion assay of dermal microvascular endothelial cells in response to bFGF; assay type: cell-based, human
Procedure: Both assays were performed by the Boyden chamber separated in two compartments by polycarbonate filters with 12 μm pores (Nucleoprobe, Cabin John, Md.), coated with collagen IV (Collaborative Biomedical Products) for migration, or with collagen IV and Matrigel together for invasion, as described previously (Barillari et al., 1999b). […] After 5 hours (migration) or 6 hours (Invasion) of incubation, the non-migrated cells present on the top surface of the filters were mechanically removed, while the migrated cells on the bottom surface were fixed in methanol and stained with toluidine blue (Sigma Chemical Co., St. Louis, Mo.). The cells present in 5-10 microscopic fields of the filters, chosen at random, were counted as described previously (Barillari et al., 1999b).
Basal invasion in the absence of bFGF was assumed as 100%.

[9] = test system: hepato-carcinoma (SK-Hep-1) cells; assay: Tumour lesions induced by SK-Hep-1 cells in nude mice; assay type: in vivo; conditions: 5×10^6 cells/site; daily treatment
Procedure: Twenty-four hours before cell injection, the mice have received sub-lethal irradiation (400 G) in order to increase the tumour up-take. The treatment with HIV-PI or saline solution continued until sacrifice. The size of the lesions present at the injection site was evaluated daily by caliper measurement. External lesion area was then calculated as the product of the two major lesion diameters. The mean size (cm^2) of the lesions present at the injection site is shown.
as §2

SMILES | External lesion size (cm^2 ± SD) (EA-hy 926 cells [1]) [cm^2] | Tissue staining (area % ± SD) CD31 (EA-hy 926 cells [1]) [%] | Tissue staining (area % ± SD) FVIII-RA (EA-hy 926 cells [1]) [%] | No. of mice with macroscopic lesions/No. of inoculated mice (EA-hy 926 cells [1]) | mice with macroscopic lesions (%) (EA-hy 926 cells [1]) | capability of the KS cells to adhere to a substrate of fibronectin (KS cells [2]) | regression of tumour angiogenic lesions (lesion size) (EA-hy 926 cells [3]) | proliferation [4] | development of tumour lesions (lesion size) [5] | KS cell proliferation (viable cells, trypan blue) (KS cells [6]) | invasive capacity in response to bFGF [7] | invasion in response to bFGF [8] | development of tumour lesions (lesion size) [9] | mice with macroscopic lesions (%) (EA-hy 926 cells [1]; listed as indinavir)
CC(C)(C)NC(=O)[C@@H]1C[C@@H]2CCCC[C@@H]2CN1C[C@@H](O)[C@H](Cc1ccccc1)NC(=O)[C@H](CC(N)=O)NC(=O)c1ccc2ccccc2n1 [Saquinavir, saquinavir] | 0.55 ± 0.14 | 0.08 ± 0.1 | 0.71 ± 0.8 | 3/12 | 25 | do not inhibit | promote the regression | do not interfere | inhibit | no effect | inhibit | inhibit | inhibit | 
CC(C)(C)NC(=O)[C@@H]1CN(Cc2cccnc2)CCN1C[C@@H](O)C[C@@H](Cc1ccccc1)C(=O)N[C@H]1c2ccccc2C[C@H]1O [Indinavir, indinavir] | 0.63 ± 0.17 | 0.70 ± 0.6 | 1.01 ± 1.5 | 4/12 | 33.3 | do not inhibit | promote the regression | do not interfere | inhibit | no effect | inhibit | inhibit | inhibit | 33
